Experimental data as given in patent EP4603105A1, “PHARMACEUTICAL COMPOSITION CONTAINING CYCLIC COMPOUND HAVING SELECTIVE KRAS INHIBITORY EFFECT AGAINST HRAS AND NRAS” (CHUGAI SEIYAKU KABUSHIKI KAISHA, priority 2022, dated 2024).
*1 amine or outer side, *2 acyl side, *3 side chain or, on linkers, in order; H or OH if unused. Where a SMILES comes first, the peptide text is derived from it. Bridges are numbered along the chain shown (N, C = ends). [ ]: non-standard residue; d: D form. The star is where a group is joined. hPhe(3-Cl-4-CF3) = N[C@@H](CCc1ccc(C(F)(F)F)c(Cl)c1)C(=O)O; NPrPhe(4-CF3) = CCCN[C@@H](Cc1ccc(C(F)(F)F)cc1)C(=O)O; NEtAsp = CCN([C@@H](CC(=O)[*:3])C(=O)[*:2])[*:1]; NEtPhe(4-Me) = CCN[C@@H](Cc1ccc(C)cc1)C(=O)O; NMeGly(cPent) = CN[C@H](C(=O)O)C1CCCC1; Gly(cBu) = N[C@H](C(=O)O)C1CCC1; NMeD = CN[C@@H](CC(=O)O)C(=O)O; NMeL = CN[C@@H](CC(C)C)C(=O)O; NMeNva = CCC[C@H](NC)C(=O)O; Morpholide = C1CN(*)CCO1; NMeA = CN[C@@H](C)C(=O)O; Ac5c = NC1(C(=O)O)CCCC1; Aze = O=C(O)[C@@H]1CCN1; Ac4c = NC1(C(=O)O)CCC1; NEtG = CCNCC(=O)O; Sar = CNCC(=O)O

How the values were obtained:
[1] = test system: human lung cancer strain NCI-H441; assay type: cell-based
Summary of the method: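 Signal came from […] measured per well once the reagent was added. Beforehand, cells were cultured at 37°C and 5% carbon dioxide on a compound series serially diluted in dimethyl sulfoxide.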

[2] = target: GDP-bound NRAS wild-type protein (Homo sapiens, UniProt P01111); experiment: Binding to NRAS by surface plasmon resonance (SPR), KD and KD ratio to KRAS
Summary of the method: (§1)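 Measured at 30°C: SPR with GDP-loaded, E. coli-expressed biotin-Avi RAS captured (~100–300 RU), ascending 75 s compound injections, HBS pH 7.4 with GDP, MgCl2, 4% DMSO. KD from 1:1 fit.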

HRAS wild-type protein = HRAS wild-type protein (Homo sapiens, UniProt P01112); experiment: Binding to HRAS by surface plasmon resonance (SPR), KD and KD ratio to KRAS
Summary of the method: as §1

[3] = ratio of KD for GDP-bound NRAS wild-type protein to KD for KRAS
[4] = ratio of KD for HRAS wild-type protein to KD for KRAS
[5] = ratio of KD value for GDP-bound NRAS wild-type protein to KD value for KRAS (SPR)
[6] = ratio of KD value for HRAS wild-type protein to KD value for KRAS (SPR)
[7] = ratio of the KD value with respect to GDP-bound NRAS wild-type protein to the KD value with respect to KRAS
[8] = ratio of the KD value with respect to HRAS wild-type protein to the KD value with respect to KRAS

Sequence of GDP-bound NRAS wild-type protein (P01111 whole entry): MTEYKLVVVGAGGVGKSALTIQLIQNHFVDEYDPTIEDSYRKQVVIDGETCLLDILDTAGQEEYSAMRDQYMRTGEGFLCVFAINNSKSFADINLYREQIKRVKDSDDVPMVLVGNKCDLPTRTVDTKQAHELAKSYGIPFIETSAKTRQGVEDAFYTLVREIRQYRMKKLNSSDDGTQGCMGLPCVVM
Sequence of HRAS wild-type protein (P01112 whole entry): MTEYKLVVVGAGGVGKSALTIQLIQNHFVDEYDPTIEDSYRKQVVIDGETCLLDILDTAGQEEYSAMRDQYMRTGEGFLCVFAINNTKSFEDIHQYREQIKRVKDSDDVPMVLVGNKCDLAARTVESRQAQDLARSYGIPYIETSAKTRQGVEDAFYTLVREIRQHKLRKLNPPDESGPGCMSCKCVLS

| Structure (SMILES) | IC50 [1] [nM] | NRAS /KRAS [2, 3] | HRAS /KRAS (HRAS wild-type protein; [4]) | NRAS /KRAS [2, 5] | HRAS /KRAS (HRAS wild-type protein; [6]) | NRAS /KRAS [2, 7] | HRAS /KRAS (HRAS wild-type protein; [8]) |
| --- | --- | --- | --- | --- | --- | --- | --- |
| CCC[C@H]1C(=O)N[C@@H]([C@@H](C)CC)C(=O)N(C)CC(=O)N(C)[C@H]2C/C=C\CCN(C2=O)[C@@H](Cc2ccc(C)cc2)C(=O)N(C)CC(=O)N[C@@H](CCc2ccc(C(F)(F)F)c(OC)c2)C(=O)N2C[C@H](OCC)C[C@H]2C(=O)NC2(CC(C)(C)C2)C(=O)N(C)[C@@H]([C@@H](C)CC)C(=O)N(C)[C@H](C(=O)N(C)C)CC(=O)N1C [PP3006] | 14.1 | A (a compound having 10 or more and less than 20 is denoted as A) | A (a compound having 10 or more and less than 20 is denoted as A) | – | – | – | – |
| CCO[C@@H]1C[C@H]2C(=O)NC3(CC(C)(C)C3)C(=O)N(C)[C@@H](C3CCCC3)C(=O)N(C)[C@H](C(=O)N(C)CC)CC(=O)N(C)[C@@H](CC)C(=O)N[C@@H]([C@@H](C)CC)C(=O)N(C)CC(=O)N(C)[C@H]3C/C=C\CCN(C3=O)[C@@H](Cc3ccc(C)cc3)C(=O)N(C)CC(=O)N[C@@H](CCc3ccc(C(F)(F)F)c(Cl)c3)C(=O)N2C1 [PP1880] | 15.6 | – | – | A (a compound having 10 or more and less than 20 is denoted as A) | B (a compound having 3 or more and less than 10 is denoted as B) | – | – |
| CCO[C@@H]1C[C@H]2C(=O)NC3(CC(F)(F)C3)C(=O)N(C)[C@@H](C3CCCC3)C(=O)N(C)[C@H](C3CCC3)CC(=O)N(C)[C@@H](CC3CC3)C(=O)N[C@@H]([C@@H](C)CC)C(=O)N(C)CC(=O)N(C)[C@H]3C/C=C\CCN(C3=O)[C@@H](Cc3ccc(C(F)(F)F)cc3)C(=O)N(C)CC(=O)N[C@@H](CCc3cc(F)c(C(F)(F)F)c(F)c3)C(=O)N2C1 [PP1639] | 44.8 | – | – | A (a compound having 10 or more and less than 20 is denoted as A) | A (a compound having 10 or more and less than 20 is denoted as A) | – | – |
| CCC[C@H]1C(=O)N[C@@H]([C@@H](C)CC)C(=O)N(C2CC2)CC(=O)N(C)[C@H]2C/C=C\CCN(C2=O)[C@@H](Cc2ccc(C)cc2)C(=O)N(C)CC(=O)N[C@@H](CCc2cc(F)c3c(c2)CCC3)C(=O)N2C[C@H](OCC)C[C@H]2C(=O)NC2(CC(C)(C)C2)C(=O)N(C)[C@@H](C2CCCC2)C(=O)N(C)[C@H](C(=O)N(C)C)CC(=O)N1C [PP2879] | 122 | A (a compound having 10 or more and less than 20 is denoted as A) | A (a compound having 10 or more and less than 20 is denoted as A) | – | – | – | – |
| CCCN(C)C(=O)[C@@H]1CC(=O)N(C)[C@@H](C(C)C)C(=O)N[C@@H]([C@@H](C)CC)C(=O)N(C)CC(=O)N(C)[C@H]2C/C=C\CCN(C2=O)[C@@H](Cc2ccc(C(F)(F)F)cc2)C(=O)N(C)CC(=O)N[C@@H](CCc2ccc(C(F)(F)F)c(OC)c2)C(=O)N2C[C@H](OCC)C[C@H]2C(=O)NC2(CCC2)C(=O)N(C)[C@@H](C2CCCC2)C(=O)N1C [PP2020] | 8.3 | – | – | – | – | A (a compound having 10 or more and less than 20 is denoted as A) | A (a compound having 10 or more and less than 20 is denoted as A) |
| CCO[C@@H]1C[C@H]2C(=O)NC3(CC(F)(F)C3)C(=O)N(C)[C@@H](C3CCCC3)C(=O)N(C)[C@H](C(=O)N(C)C)CC(=O)N(C)[C@@H](CC3CCC3)C(=O)N[C@@H]([C@@H](C)CC)C(=O)N(C)CC(=O)N(C)[C@H]3C/C=C\CCN(C3=O)[C@@H](Cc3ccc(C(F)(F)F)cc3)C(=O)N(C)CC(=O)N[C@@H](CCc3cc(F)c(C(F)(F)F)c(F)c3)C(=O)N2C1 [PP1742] | 1.6 | – | – | A (a compound having 10 or more and less than 20 is denoted as A) | A (a compound having 10 or more and less than 20 is denoted as A) | – | – |
| CCCN1C(=O)CN(C)C(=O)CN(C)C(=O)[C@H]([C@@H](C)CC)NC(=O)[C@H](CC(C)C)N(C)C(=O)C[C@@H](C(=O)N(C)C)NC(=O)[C@H](C2CCCC2)N(C)C(=O)C2(CCCC2)NC(=O)[C@@H]2CCCN2C(=O)[C@H](CCc2ccc(C(F)(F)F)c(Cl)c2)NC(=O)CN(C)C(=O)[C@@H]1Cc1ccc(C(F)(F)F)cc1 [PP0355] ([NMeL]I[Sar][Sar][NPrPhe(4-CF3)][Sar][hPhe(3-Cl-4-CF3)]P[Ac5c][NMeGly(cPent)]D-NMe2; lactam N-11) | 48.2 | B (a compound having 3 or more and less than 10 is denoted as B) | B (a compound having 3 or more and less than 10 is denoted as B) | – | – | – | – |

Further lines, with some results ahead:

| IC50 [1] [nM] | Structure (SMILES) | NRAS /KRAS [2, 3] | HRAS /KRAS (HRAS wild-type protein; [4]) | NRAS /KRAS [2, 5] | HRAS /KRAS (HRAS wild-type protein; [6]) | NRAS /KRAS [2, 7] | HRAS /KRAS (HRAS wild-type protein; [8]) |
| --- | --- | --- | --- | --- | --- | --- | --- |
| 8.7 | CCCN1C(=O)CN(C)C(=O)CN(C)C(=O)[C@H]([C@@H](C)CC)NC(=O)[C@H](CC(C)C)N(C)C(=O)C[C@@H](C(=O)N2CCOCC2)N(CC)C(=O)[C@H](C2CCCC2)N(C)C(=O)C2(CCC2)NC(=O)[C@@H]2CCCN2C(=O)[C@H](CCc2ccc(C(F)(F)F)c(Cl)c2)NC(=O)CN(C)C(=O)[C@@H]1Cc1ccc(C(F)(F)F)cc1 [PP1953] ([NMeL]I[Sar][Sar][NPrPhe(4-CF3)][Sar][hPhe(3-Cl-4-CF3)]P[Ac4c][NMeGly(cPent)][NEtAsp]-Morpholide; lactam N-11) | – | – | – | – | B (a compound having 3 or more and less than 10 is denoted as B) | B (a compound having 3 or more and less than 10 is denoted as B) |
| 20.6 | CC[C@H](C)[C@@H]1NC(=O)[C@H](CC(C)C)N(C)C(=O)C[C@@H](C(=O)N2CCOCC2)N(C)C(=O)[C@H](C2CCCC2)N(C)C(=O)C2(CCCC2)NC(=O)[C@@H]2CCCN2C(=O)[C@H](CCc2ccc(C(F)(F)F)c(Cl)c2)NC(=O)CN(CC)C(=O)[C@H](Cc2ccc(C)cc2)N(CC)C(=O)[C@@H]2CCN2C(=O)[C@H](C)N(C)C1=O [PP0006] ([NMeL]I[NMeA][Aze][NEtPhe(4-Me)][NEtG][hPhe(3-Cl-4-CF3)]P[Ac5c][NMeGly(cPent)][NMeD]-Morpholide; lactam N-11) | C (A compound having a KD ratio of 0.1 or more and less than 3 is denoted as C) | C (A compound having a KD ratio of 0.1 or more and less than 3 is denoted as C) | – | – | – | – |
| 49.6 | CCCN1C(=O)CN(C)C(=O)[C@@H]2CCN2C(=O)[C@H](C2CCC2)NC(=O)[C@H](CC(C)C)N(C)C(=O)C[C@@H](C(=O)N2CCOCC2)N(C)C(=O)[C@H](C2CCCC2)N(C)C(=O)C2(CCCC2)NC(=O)[C@@H]2CCCN2C(=O)[C@H](CCc2ccc(C(F)(F)F)c(Cl)c2)NC(=O)CN(C)C(=O)[C@@H]1Cc1ccc(C(F)(F)F)cc1 [PP0305] ([NMeL][Gly(cBu)][Aze][Sar][NPrPhe(4-CF3)][Sar][hPhe(3-Cl-4-CF3)]P[Ac5c][NMeGly(cPent)][NMeD]-Morpholide; lactam N-11) | B (a compound having 3 or more and less than 10 is denoted as B) | C (A compound having a KD ratio of 0.1 or more and less than 3 is denoted as C) | – | – | – | – |
| 3 | CCC[C@H]1C(=O)N[C@@H]([C@@H](C)CC)C(=O)N(C)CC(=O)N(C)CC(=O)N(CCC)[C@@H](Cc2ccc(C(F)(F)F)cc2)C(=O)N(C)CC(=O)N[C@@H](CCc2ccc(C(F)(F)F)c(Cl)c2)C(=O)N2CCC[C@H]2C(=O)NC2(CCCC2)C(=O)N(C)[C@@H](C2CCCC2)C(=O)N(C)[C@H](C(=O)N2CCOCC2)CC(=O)N1C [PP0189] ([NMeNva]I[Sar][Sar][NPrPhe(4-CF3)][Sar][hPhe(3-Cl-4-CF3)]P[Ac5c][NMeGly(cPent)][NMeD]-Morpholide; lactam N-11) | B (a compound having 3 or more and less than 10 is denoted as B) | C (A compound having a KD ratio of 0.1 or more and less than 3 is denoted as C) | – | – | – | – |
